Measured values from patent publication US20240051944A1, “CRYSTALLINE FORM II OF MELANOCORTIN RECEPTOR AGONIST COMPOUND AND PREPARATION METHOD THEREFOR” (LG CHEM, LTD., priority 2020, published 2024).
Entries after “also recorded” stand apart in the source; their conditions may differ.

Columns and labels:
Format in all cases: physicochemical
[1] = Stability assessment (HPLC) under accelerated and harsh storage conditions; settings: for Stability assessment, HPLC content: in % (unit assumed)
Method: About 10-30 mg of the sample was stored for 4 weeks in an open state under the accelerated condition (40° C., 75% RH) or in a sealed state under the harsh condition in an oven at 80° C. [table]

[2] = Dynamic vapor sorption (DVS) analysis
Method: DVS was measured using automated gravimetric vapor sorption analyzer equipped with Cahn D200 ultra-microbalance (DVS Intrinsic apparatus, Surface Measurement System Ltd., UK). First, a sample of 10-20 mg was put in a sample pan and hung on a hang-down wire, and measurement was started when the weight and humidity reached equilibrium. In one cycle, relative humidity was increased from 0% to 90% and then dropped back to 0%. Two cycles were carried out. The experiment was carried out in a way that the relative humidity was increased at 10% increment using a dm/dt method. The experiment was carried out at room temperature (25° C.)

[3] = Thermogravimetric analysis (TGA); settings: heated 30° C. to 350° C. at 10° C./min
Method: The TGA was measured using Mettler Toledo TGA/DSC 1 module. About 4-8 mg of the sample is weighed and put into a 100 μL Al crucible (flat-bottomed aluminum crucibles). Then, TGA measurement is performed while the sample is heated from 30° C. to 350° C. at a rate of 10° C./min. During the measurement, nitrogen gas is supplied to the inside of the instrument at a rate of 80 mL/min to prevent the inflow of oxygen and other gases. Data collection and evaluation were performed using the software STARe.

Stability assessment, HPLC content ([1]; Accelerated condition (40° C./75% RH), open state, Day 3): 96.35
Stability assessment, HPLC content ([1]; Accelerated condition (40° C./75% RH), open state, Week 1): 96.02
Stability assessment, HPLC content ([1]; Accelerated condition (40° C./75% RH), open state, Week 2): 96.08
Stability assessment, HPLC content ([1]; Accelerated condition (40° C./75% RH), open state, Week 4): 95.69
Stability assessment, HPLC content ([1]; Harsh condition (80° C.), sealed state, Day 3): 96.54
Stability assessment, HPLC content ([1]; Harsh condition (80° C.), sealed state, Week 1): 95.74
Stability assessment, HPLC content ([1]; Harsh condition (80° C.), sealed state, Week 2): 94.82
Stability assessment, HPLC content ([1]; Harsh condition (80° C.), sealed state, Week 4): 93.42
Stability assessment, HPLC content ([1]; Initial): 96.01
decrease in the content ([1]; harsh condition (closed state, 80° C.), 4 weeks): about 2.6%
physical change after DVS (XRPD pattern vs initial) ([2]; XRPD after DVS analysis): no physical change occurred
total weight gain (DVS) ([2]; between 0-90% RH, 25° C.): 1.25 % w/w
weight loss before degradation (TGA) [3]: no weight loss was observed
temperature up to which thermally stable (TGA) ([3]; error ±5° C.): up to 270 °C
Structure (SMILES): CC(C)C(=O)N([C@H]1C[C@@H](C(=O)N2CCOCC2)N(C(=O)[C@@H]2CN(C(C)(C)C)C[C@H]2c2ccc(Cl)cc2)C1)[C@H]1CC[C@@H](C)CC1 [Example 1, N-((3S,5S)-1-((3S,4R)-1-(tert-butyl)-4-(4-chlorophenyl)pyrrolidine-3-carbonyl)-5-(morpholine-4-carbonyl)pyrrolidin-3-yl)-N-((1s,4R)-4-methylcyclohexyl)isobutyramide]
chemical stability (HPLC), result in words ([1]; accelerated condition (40° C., 75% RH), 4 weeks, listed as crystalline form II): showed chemical stability for 4 weeks; also recorded: exhibited chemical stability for 4 weeks
